# In US20120029187A1, “HALOALKYLSULFONANILIDE DERIVATIVE” (Nissan Chemical Industries, Ltd., priority 2009, published 2012):
# Experiments:
# Format in all cases: in vivo
# transplanted rice = experiment: Test Example 1: preemergence treatment under submerged conditions, effect on crop; settings: dose 2.52 g/a
# In short: (§1)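 Flooded-paddy preemergence assay; EC diluted with water, surface-applied at weed seeding; doses g/a; rice transplanted at 2.5 leaves; 0–5 mortality score after 3 weeks.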
# large crabgrass [1] = experiment: Test Example 3: herbicidal effects in soil treatment; settings: dose 3.2 g/a
# In short: (§2)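 Seeds were sown in sterilized diluvial soil and covered with about 1.5 cm of soil. Compounds, formulated as emulsifiable concentrates and diluted with water, were sprayed evenly over the soil surface at set doses in g/a. Herbicidal effect was scored on a rating scale three weeks later.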
# Italian ryegrass [2] = experiment: as above; settings: dose 3.2 g/a
# In short: as §2
# common chickweed [3] = experiment: as above; settings: dose 3.2 g/a
# In short: as §2
# barnyardgrass [4] = experiment: as above; settings: dose 3.2 g/a
# In short: as §2
# water foxtail [5] = experiment: as above; settings: dose 3.2 g/a
# In short: as §2
# common lambsquater [6] = experiment: as above; settings: dose 3.2 g/a
# In short: as §2
# common ragweed [7] = experiment: as above; settings: dose 3.2 g/a
# In short: as §2
# velvetleaf [8] = experiment: as above; settings: dose 3.2 g/a
# In short: as §2
# posumbu knotweed [9] = experiment: as above; settings: dose 3.2 g/a
# In short: as §2
# redroot pigweed [10] = experiment: as above; settings: dose 3.2 g/a
# In short: as §2
# giant foxtail [11] = experiment: as above; settings: dose 3.2 g/a
# In short: as §2
# large crabgrass [12] = experiment: Test Example 4: herbicidal effect in foliage treatment; settings: dose 3.2 g/a
# In short: (§3)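 Foliar spray, post-emergence: 14-day-old greenhouse plants (25–30° C, diluvial soil) treated with water-diluted EC at set g/a doses; visual herbicidal score at 3 wk post-application.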
# Italian ryegrass [13] = experiment: as above; settings: dose 3.2 g/a
# In short: as §3
# common chickweed [14] = experiment: as above; settings: dose 3.2 g/a
# In short: as §3
# barnyardgrass [15] = experiment: as above; settings: dose 3.2 g/a
# In short: as §3
# water foxtail [16] = experiment: as above; settings: dose 3.2 g/a
# In short: as §3
# common lambsquater [17] = experiment: as above; settings: dose 3.2 g/a
# In short: as §3
# common ragweed [18] = experiment: as above; settings: dose 3.2 g/a
# In short: as §3
# velvetleaf [19] = experiment: as above; settings: dose 3.2 g/a
# In short: as §3
# posumbu knotweed [20] = experiment: as above; settings: dose 3.2 g/a
# In short: as §3
# redroot pigweed [21] = experiment: as above; settings: dose 3.2 g/a
# In short: as §3
# giant foxtail [22] = experiment: as above; settings: dose 3.2 g/a
# In short: as §3
# bulrush [23] = experiment: Test Example 1: herbicidal effects in preemergence treatment under submerged conditions; settings: dose 2.52 g/a
# In short: as §1
# barnyardgrass [24] = experiment: as above; settings: dose 2.52 g/a
# In short: as §1
# ducksalad [25] = experiment: as above; settings: dose 2.52 g/a
# In short: as §1
# bulrush [26] = experiment: Test Example 2: herbicidal effects during the vegetation period under submerged conditions; settings: treatment during the vegetation period under submerged conditions; dose 2.52 g/a
# In short: (§4)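 Barnyardgrass, bulrush and ducksalad were co-sown in alluvial soil flooded to 4 cm and grown in a greenhouse at 25 to 30° C. At the 1- or 2-leaf stage, water-diluted emulsifiable concentrates went onto the water surface at set doses (g/a). Herbicidal effect was scored three weeks later on a graded scale.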
# barnyardgrass [27] = experiment: as above; settings: treatment during the vegetation period under submerged conditions; dose 2.52 g/a
# In short: as §4
# ducksalad [28] = experiment: as above; settings: treatment during the vegetation period under submerged conditions; dose 2.52 g/a
# In short: as §4
# beadstraw = experiment: Test Example 4: herbicidal effect in foliage treatment; settings: dose 3.2 g/a, three weeks after the application
# In short: as §3
# [29] = three weeks after the application
compound,measurement,setting,value
CCOC(=O)N(c1ccccc1CN1COC(C)(c2ccccc2)CC1=O)S(=O)(=O)C(F)(F)F (stereo not shown) [II-58],"a: transplanted rice, effect on crop (evaluation scale 0-5)",transplanted rice,0 (mortality of less than 5% (almost ineffective))
same,"D: large crabgrass, herbicidal effect (evaluation scale 0-5)",large crabgrass [1],0 (mortality of less than 5% (almost ineffective))
same,"H: Italian ryegrass, herbicidal effect (evaluation scale 0-5)",Italian ryegrass [2],4 (mortality of at least 70% and less than 90%)
same,"N: common chickweed, herbicidal effect (evaluation scale 0-5)",common chickweed [3],0 (mortality of less than 5% (almost ineffective))
same,"A: barnyardgrass, herbicidal effect (evaluation scale 0-5)",barnyardgrass [4],0 (mortality of less than 5% (almost ineffective))
same,"G: water foxtail, herbicidal effect (evaluation scale 0-5)",water foxtail [5],5 (mortality of 90% or above (nearly complete death))
same,"L: common lambsquater, herbicidal effect (evaluation scale 0-5)",common lambsquater [6],0 (mortality of less than 5% (almost ineffective))
same,"J: common ragweed, herbicidal effect (evaluation scale 0-5)",common ragweed [7],0 (mortality of less than 5% (almost ineffective))
same,"I: velvetleaf, herbicidal effect (evaluation scale 0-5)",velvetleaf [8],0 (mortality of less than 5% (almost ineffective))
same,"M: posumbu knotweed, herbicidal effect (evaluation scale 0-5)",posumbu knotweed [9],4 (mortality of at least 70% and less than 90%)
same,"K: redroot pigweed, herbicidal effect (evaluation scale 0-5)",redroot pigweed [10],0 (mortality of less than 5% (almost ineffective))
same,"E: giant foxtail, herbicidal effect (evaluation scale 0-5)",giant foxtail [11],0 (mortality of less than 5% (almost ineffective))
same,"D: large crabgrass, herbicidal effect",large crabgrass [12]; three weeks after application,0 (mortality of less than 5% (almost ineffective))
same,"H: Italian ryegrass, herbicidal effect",Italian ryegrass [13]; three weeks after application,4 (mortality of at least 70% and less than 90%)
same,"N: common chickweed, herbicidal effect",common chickweed [14]; three weeks after application,4 (mortality of at least 70% and less than 90%)
same,"A: barnyardgrass, herbicidal effect",barnyardgrass [15]; three weeks after application,3 (mortality of at least 40% and less than 70%)
same,"G: water foxtail, herbicidal effect",water foxtail [16]; three weeks after application,3 (mortality of at least 40% and less than 70%)
same,"L: common lambsquater, herbicidal effect",common lambsquater [17]; three weeks after application,1 (mortality of at least 5% and less than 20%)
same,"J: common ragweed, herbicidal effect",common ragweed [18]; three weeks after application,3 (mortality of at least 40% and less than 70%)
same,"I: velvetleaf, herbicidal effect",velvetleaf [19]; three weeks after application,0 (mortality of less than 5% (almost ineffective))
same,"M: posumbu knotweed, herbicidal effect",posumbu knotweed [20]; three weeks after application,3 (mortality of at least 40% and less than 70%)
same,"K: redroot pigweed, herbicidal effect",redroot pigweed [21]; three weeks after application,0 (mortality of less than 5% (almost ineffective))
same,"E: giant foxtail, herbicidal effect",giant foxtail [22]; three weeks after application,0 (mortality of less than 5% (almost ineffective))
same,"B: bulrush, herbicidal effect (evaluation scale 0-5)",bulrush [23],5 (mortality of 90% or above (nearly complete death))
same,"A: barnyardgrass, herbicidal effect (evaluation scale 0-5)",barnyardgrass [24],5 (mortality of 90% or above (nearly complete death))
same,"C: ducksalad, herbicidal effect (evaluation scale 0-5)",ducksalad [25],5 (mortality of 90% or above (nearly complete death))
same,"B: bulrush, herbicidal effect (evaluation scale 0-5)",bulrush [26],5 (mortality of 90% or above (nearly complete death))
same,"A: barnyardgrass, herbicidal effect (evaluation scale 0-5)",barnyardgrass [27],4 (mortality of at least 70% and less than 90%)
same,"C: ducksalad, herbicidal effect (evaluation scale 0-5)",ducksalad [28],5 (mortality of 90% or above (nearly complete death))
CC1(C)CON(Cc2ccccc2NS(=O)(=O)C(F)(F)F)C(=O)O1 [III-10],"a: transplanted rice, effect on crop (evaluation scale 0-5)",transplanted rice,0 (mortality of less than 5% (almost ineffective))
same,"herbicidal effect, D: large crabgrass",large crabgrass [1],5 (mortality of 90% or above (nearly complete death))
same,"herbicidal effect, H: Italian ryegrass",Italian ryegrass [2],4 (mortality of at least 70% and less than 90%)
same,"herbicidal effect, N: common chickweed",common chickweed [3],4 (mortality of at least 70% and less than 90%)
same,"herbicidal effect, A: barnyardgrass",barnyardgrass [4],5 (mortality of 90% or above (nearly complete death))
same,"herbicidal effect, G: water foxtail",water foxtail [5],5 (mortality of 90% or above (nearly complete death))
same,"herbicidal effect, L: common lambsquater",common lambsquater [6],4 (mortality of at least 70% and less than 90%)
same,"herbicidal effect, J: common ragweed",common ragweed [7],5 (mortality of 90% or above (nearly complete death))
same,"herbicidal effect, M: posumbu knotweed",posumbu knotweed [9],5 (mortality of 90% or above (nearly complete death))
same,"herbicidal effect, K: redroot pigweed",redroot pigweed [10],2 (mortality of at least 20% and less than 40%)
same,"herbicidal effect, E: giant foxtail",giant foxtail [11],4 (mortality of at least 70% and less than 90%)
same,"D: large crabgrass, herbicidal effect",large crabgrass [12]; [29],4 (mortality of at least 70% and less than 90%)
same,"H: Italian ryegrass, herbicidal effect",Italian ryegrass [13]; [29],4 (mortality of at least 70% and less than 90%)
same,"N: common chickweed, herbicidal effect",common chickweed [14]; [29],1 (mortality of at least 5% and less than 20%)
same,"A: barnyardgrass, herbicidal effect",barnyardgrass [15]; [29],5 (mortality of 90% or above (nearly complete death))
same,"G: water foxtail, herbicidal effect",water foxtail [16]; [29],5 (mortality of 90% or above (nearly complete death))
same,"L: common lambsquater, herbicidal effect",common lambsquater [17]; [29],4 (mortality of at least 70% and less than 90%)
same,"J: common ragweed, herbicidal effect",common ragweed [18]; [29],5 (mortality of 90% or above (nearly complete death))
same,"I: velvetleaf, herbicidal effect",velvetleaf [19]; [29],3 (mortality of at least 40% and less than 70%)
same,"O: beadstraw, herbicidal effect",beadstraw,5 (mortality of 90% or above (nearly complete death))
same,"M: posumbu knotweed, herbicidal effect",posumbu knotweed [20]; [29],5 (mortality of 90% or above (nearly complete death))
same,"K: redroot pigweed, herbicidal effect",redroot pigweed [21]; [29],4 (mortality of at least 70% and less than 90%)
same,"E: giant foxtail, herbicidal effect",giant foxtail [22]; [29],1 (mortality of at least 5% and less than 20%)
same,"B: bulrush, herbicidal effect (evaluation scale 0-5)",bulrush [23],5 (mortality of 90% or above (nearly complete death))
same,"A: barnyardgrass, herbicidal effect (evaluation scale 0-5)",barnyardgrass [24],5 (mortality of 90% or above (nearly complete death))
same,"C: ducksalad, herbicidal effect (evaluation scale 0-5)",ducksalad [25],5 (mortality of 90% or above (nearly complete death))
same,"B: bulrush, herbicidal effect (evaluation scale 0-5)",bulrush [26],5 (mortality of 90% or above (nearly complete death))
same,"A: barnyardgrass, herbicidal effect (evaluation scale 0-5)",barnyardgrass [27],5 (mortality of 90% or above (nearly complete death))
same,"C: ducksalad, herbicidal effect (evaluation scale 0-5)",ducksalad [28],5 (mortality of 90% or above (nearly complete death))
